# From patent publication US20260328779A1, “METHODS AND COMPOSITIONS FOR THE DIAGNOSIS AND TREATMENT OF IGA NEPHROPATHY” (Beth Israel Deaconess Medical Center, Inc., priority 2022, published 2026)
# What was measured:
# [1] = test system: anti-Tn IgM; test: Inhibition of anti-Tn antibody binding to Tn glycopeptide array; parameters: species or system human; settings: glycomimetic 20 mM, 30 min at RT, anti-Tn antibodies C3
# Experimental: The Tn glycopeptide microarray was prepared as previously described^77. Briefly, the glycopeptides printed on the microarray is as listed (FIG. 2). Purified anti-Tn antibodies (diluted to […] for IgM, and […] for IgG and IgA detection) in TSM binding buffer (20 mM Tris-HCl, pH 7.4, 150 mM NaCl, 2 mM CaCl2), 2 mM MgCl2, with 1% BSA and 0.05% Tween-20) were added to the respective array slides for 1 h at RT. Alexa Fluor #488-labeled goat anti-human IgM or goat anti-human IgG, or FITC-labeled goat anti-human IgA antibody at 1:400 dilution in TSM binding buffer was used for detection of IgM, IgG, and IgA within purified anti-Tn antibodies. Slides were analyzed on a Genepix^# 4300A microarray scanner (Molecular Devices). Images were analyzed with quantitation software (GenePix® Pro Microarray Analysis Software Ver. 7, Molecular Devices). For inhibition assay, a purified Tn(+)IgA1 produced from CosmcKO Dakiki cells was utilized (See Generation of CosmcKO Dakiki cells using CRISPR-Cas9 system for generating the antibody) to inhibit anti-Tn antibodies binding to microarray and Tn(−)IgA1 produced from Dakiki cells as a […]. Purified anti-Tn antibodies (Cl, 10 mg/ml) in TSM binding buffer was preincubated with 1 mg of purified Tn(+)IgA1, or Tn(−)IgA1 for 30 min at RT. […] Heat map and correlation map of binding preferences were analyzed using GLAD (Glycan Array Dashboard).
# [2] = test system: anti-Tn CICs; test: Dissociation of anti-Tn CICs by glycomimetic treatment (BN-APAGE-WB); assay type: biochemical, human; settings: 100 mM, 2 h at 4° C.; anti-Tn CICs from IgAN patients
# Experimental: Furthermore, it was tested whether the anti-Tn IgM immune complexes can be dissociated from Tn(+)IgA1 using compounds that mimic the Tn antigen-glycomimetics. For this purpose, the anti-Tn CICs were affinity-purified from the sera of IgAN patients; the anti-Tn CICs were treated with mock, α-methylGalNAc (glycomimetic compound, αGalNAc), or α-methylGlcNAc (control compound, αGlcNAc), followed by BN-APAGE-WB and probing for IgM, and IgA. […] An IgA1 signal was unable to be detected in mock and α-methylGlcNAc-treated samples (FIG. 5F, lane 1 and 3, bottom), indicating the IgA1 epitopes may be buried within the CICs and thus not available in this native page set-up for WB detection.
# Samples (~0.1 mg) or for plain serum (1:200 dilution in PBS, […]) run on BN-APAGE were transferred onto activated PVDF membrane (Cat #IPVH00010, EMD Millipore, wet-transfer system, 40 V for 2 h). The membranes were quickly destained with 100% methanol, washed with TBST, and blocked with 5% (w/vol) non-fat milk in TBST for 1 h at RT. […]
# For glycomimetic treatment, purified anti-Tn CICs (~0.1 mg) was pretreated with α-methylGalNAc (100 mM), α-methylGlcNAc (100 mM), or mock in PBS for 2 h at 4° C. on a rotator (10 rpm) and the samples were analyzed by BN-APAGE-WB and probed for IgM and IgA.
compound,measurement,setting,value
CO[C@H]1O[C@H](CO)[C@H](O)[C@H](O)[C@H]1NC(C)=O [α-methylGalNAc],inhibition of anti-Tn antibody (IgM) binding to Tn glycopeptide array,[1],specifically inhibited binding of the anti-Tn IgM
same,dissociation of Tn(+)IgA1 from anti-Tn CICs,[2],caused dissociation of the Tn(+)IgA1 from anti-Tn IgM immune complexes
